{
  "source": "patent EP0377642B1",
  "about": "“HERBICIDES FOR WEED CONTROL IN RICE” (E.I. DU PONT DE NEMOURS AND COMPANY, priority 1987, dated 1989)",
  "format_in_all_cases": "in vivo",
  "key": {"[1]": {"system": "transplanted rice", "assay": "Crop tolerance of transplanted rice (Table 7)", "settings": "rating 0-10", "description": "(§1) Methyl 2-[[[[(4-methoxy-6-methyl-1,3,5-triazin-2-yl)amino]carbonyl]amino]sulfonyl]benzoate (Compound 1) and mixtures thereof with other compounds were applied as a spray (using a hand sprayer) to rice (either transplanted or direct seeded) in several rice growing areas in Southeast Asia and in the U.S. Tables 1-28 contain the results of these tests and clearly exemplify the utility of this invention. The details of each application are included in the appropriate table. [drawing 2]"}, "[2]": {"system": "FIMBRISTYLIS MILIACEA", "assay": "Herbicidal efficacy alone and with 2,4-D in Thailand (Table 3)", "settings": "6 weeks after application", "description": "as §1"}, "[3]": {"system": "transplanted rice (var. Nihonbare)", "assay": "Crop tolerance of transplanted rice, combinations with Thiobencarb, Dimepiperate, Esprocarb and Dymron (Table 15)", "settings": "15 days after application", "description": "as §1"}, "[4]": {"system": "rice", "assay": "Greenhouse test of Compound 1 and Compound 2, crop tolerance (Table 26)", "settings": "treated 12 days after transplanting, rated 24 days after treatment; for % CONTROL OR INJURY LEMONT: indica rice variety Lemont; for % CONTROL OR INJURY M101: japonica rice variety M101", "description": "as §1"}, "[5]": {"system": "rice", "assay": "Effects in combination with Thiobencarb and Bensulfuron Methyl on rice growth (Table 22)", "settings": "rate 8 g ai/ha; var. Koshihikari, applied 7 days after transplanting, rated 21 days after application", "description": "as §1"}, "[6]": {"system": "rice", "assay": "Effects on rice growth in Thailand, phytotoxicity (Table 4)", "settings": "scale 0-10", "description": "as §1"}, "[7]": {"system": "PS", "assay": "Herbicidal efficacy in relation to application timing in Indonesia (Table 5)", "description": "as §1"}},
  "data": [
    {"smiles": "COC(=O)c1ccccc1S(=O)(=O)NC(=O)Nc1nc(C)nc(OC)n1", "note": "[Compound 1, Methyl 2-[[[[(4-methoxy-6-methyl-1,3,5-triazin-2-yl)amino]carbonyl]amino]sulfonyl]benzoate]", "values": [
      {"measurement": "CROP TOLERANCE", "setting": "[1]; 3 GAI/HA, 1 WAA", "result": 0},
      {"measurement": "CROP TOLERANCE", "setting": "[1]; 3 GAI/HA, 2WAA", "result": 0},
      {"measurement": "CROP TOLERANCE", "setting": "[1]; 3 GAI/HA, 4WAA", "result": 0},
      {"measurement": "CROP TOLERANCE", "setting": "[1]; 3 GAI/HA, 6WAA", "result": 0},
      {"measurement": "CROP TOLERANCE", "setting": "[1]; 4 GAI/HA, 1 WAA", "result": 0},
      {"measurement": "CROP TOLERANCE", "setting": "[1]; 4 GAI/HA, 2WAA", "result": 0},
      {"measurement": "CROP TOLERANCE", "setting": "[1]; 4 GAI/HA, 4WAA", "result": 0},
      {"measurement": "CROP TOLERANCE", "setting": "[1]; 4 GAI/HA, 6WAA", "result": 0},
      {"measurement": "CROP TOLERANCE", "setting": "[1]; 6 GAI/HA, 1 WAA", "result": 1},
      {"measurement": "CROP TOLERANCE", "setting": "[1]; 6 GAI/HA, 2WAA", "result": 0},
      {"measurement": "CROP TOLERANCE", "setting": "[1]; 6 GAI/HA, 4WAA", "result": 0},
      {"measurement": "CROP TOLERANCE", "setting": "[1]; 6 GAI/HA, 6WAA", "result": 0},
      {"measurement": "CROP TOLERANCE", "setting": "[1]; 8 GAI/HA, 1 WAA", "result": 1},
      {"measurement": "CROP TOLERANCE", "setting": "[1]; 8 GAI/HA, 2WAA", "result": 1},
      {"measurement": "CROP TOLERANCE", "setting": "[1]; 8 GAI/HA, 4WAA", "result": 0},
      {"measurement": "CROP TOLERANCE", "setting": "[1]; 8 GAI/HA, 6WAA", "result": 0},
      {"measurement": "FIMBRISTYLIS MILIACEA CONTROL", "setting": "[2]; applied 7 DAS, 3 GAI/HA", "result": 53, "unit": "%"},
      {"measurement": "FIMBRISTYLIS MILIACEA CONTROL", "setting": "[2]; applied 7 DAS, 6 GAI/HA", "result": 73, "unit": "%"},
      {"measurement": "FIMBRISTYLIS MILIACEA CONTROL", "setting": "[2]; applied 14 DAS, 3 GAI/HA", "result": 20, "unit": "%"},
      {"measurement": "FIMBRISTYLIS MILIACEA CONTROL", "setting": "[2]; applied 14 DAS, 6 GAI/HA", "result": 40, "unit": "%"},
      {"measurement": "FIMBRISTYLIS MILIACEA CONTROL", "setting": "[2]; applied 21 DAS, 3 GAI/HA", "result": 0, "unit": "%"},
      {"measurement": "FIMBRISTYLIS MILIACEA CONTROL", "setting": "[2]; applied 21 DAS, 6 GAI/HA", "result": 0, "unit": "%"},
      {"measurement": "FIMBRISTYLIS MILIACEA CONTROL", "setting": "[2]; applied 28 DAS, 3 GAI/HA", "result": 0, "unit": "%"},
      {"measurement": "FIMBRISTYLIS MILIACEA CONTROL", "setting": "[2]; applied 28 DAS, 6 GAI/HA", "result": 0, "unit": "%"},
      {"measurement": "CROP TOLERANCE (Nihonbare) DW, dry weight relative to untreated check", "setting": "[3]; 4 GAI/HA", "result": 107, "unit": "%"},
      {"measurement": "CROP TOLERANCE (Nihonbare) PH, plant height relative to untreated check", "setting": "[3]; 4 GAI/HA", "result": 103, "unit": "%"},
      {"measurement": "CROP TOLERANCE (Nihonbare) VA, visual crop injury", "setting": "[3]; 4 GAI/HA", "result": 0, "unit": "%"},
      {"measurement": "CROP TOLERANCE (Nihonbare) DW, dry weight relative to untreated check", "setting": "[3]; 8 GAI/HA", "result": 83, "unit": "%"},
      {"measurement": "CROP TOLERANCE (Nihonbare) PH, plant height relative to untreated check", "setting": "[3]; 8 GAI/HA", "result": 95, "unit": "%"},
      {"measurement": "CROP TOLERANCE (Nihonbare) VA, visual crop injury", "setting": "[3]; 8 GAI/HA", "result": 3, "unit": "%"},
      {"measurement": "% CONTROL OR INJURY LEMONT", "setting": "[4]; rate 1 g ai/ha", "result": 10, "unit": "%"},
      {"measurement": "% CONTROL OR INJURY LEMONT", "setting": "[4]; rate 2 g ai/ha", "result": 20, "unit": "%"},
      {"measurement": "% CONTROL OR INJURY LEMONT", "setting": "[4]; rate 4 g ai/ha", "result": 40, "unit": "%"},
      {"measurement": "% CONTROL OR INJURY LEMONT", "setting": "[4]; rate 8 g ai/ha", "result": 50, "unit": "%"},
      {"measurement": "% CONTROL OR INJURY M101", "setting": "[4]; rate 1 g ai/ha", "result": 0, "unit": "%"},
      {"measurement": "% CONTROL OR INJURY M101", "setting": "[4]; rate 2 g ai/ha", "result": 10, "unit": "%"},
      {"measurement": "% CONTROL OR INJURY M101", "setting": "[4]; rate 4 g ai/ha", "result": 10, "unit": "%"},
      {"measurement": "% CONTROL OR INJURY M101", "setting": "[4]; rate 8 g ai/ha", "result": 35, "unit": "%"},
      {"measurement": "CROP TOLERANCE DW (Dry weight relative to untreated check)", "setting": "[5]", "result": 92, "unit": "%"},
      {"measurement": "CROP TOLERANCE PH (Plant height relative to untreated check)", "setting": "[5]", "result": 99, "unit": "%"},
      {"measurement": "CROP TOLERANCE VA (Visual crop injury)", "setting": "[5]", "result": 0.5, "unit": "%"},
      {"measurement": "PHYTOTOXICITY", "setting": "[6]; applied 7 DAS, 3 GAI/HA", "result": 1.67},
      {"measurement": "PHYTOTOXICITY", "setting": "[6]; applied 7 DAS, 6 GAI/HA", "result": 1.67},
      {"measurement": "PHYTOTOXICITY", "setting": "[6]; applied 14 DAS, 3 GAI/HA", "result": 1.0},
      {"measurement": "PHYTOTOXICITY", "setting": "[6]; applied 14 DAS, 6 GAI/HA", "result": 1.0},
      {"measurement": "PHYTOTOXICITY", "setting": "[6]; applied 21 DAS, 3 GAI/HA", "result": 0.67},
      {"measurement": "PHYTOTOXICITY", "setting": "[6]; applied 21 DAS, 6 GAI/HA", "result": 1.0},
      {"measurement": "PHYTOTOXICITY", "setting": "[6]; applied 28 DAS, 3 GAI/HA", "result": 0},
      {"measurement": "PHYTOTOXICITY", "setting": "[6]; applied 28 DAS, 6 GAI/HA", "result": 0},
      {"measurement": "% CONTROL PS", "setting": "[7]; 3 WAT, 2 GAI/HA, evaluation 1", "result": 0, "unit": "%"},
      {"measurement": "% CONTROL PS", "setting": "[7]; 3 WAT, 2 GAI/HA, evaluation 2", "result": 0, "unit": "%"},
      {"measurement": "% CONTROL PS", "setting": "[7]; 3 WAT, 2 GAI/HA, evaluation 3", "result": 0, "unit": "%"},
      {"measurement": "% CONTROL PS", "setting": "[7]; 3 WAT, 3 GAI/HA, evaluation 1", "result": 0, "unit": "%"},
      {"measurement": "% CONTROL PS", "setting": "[7]; 3 WAT, 3 GAI/HA, evaluation 2", "result": 0, "unit": "%"},
      {"measurement": "% CONTROL PS", "setting": "[7]; 3 WAT, 3 GAI/HA, evaluation 3", "result": 0, "unit": "%"},
      {"measurement": "% CONTROL PS", "setting": "[7]; 3 WAT, 4 GAI/HA, evaluation 1", "result": 0, "unit": "%"},
      {"measurement": "% CONTROL PS", "setting": "[7]; 3 WAT, 4 GAI/HA, evaluation 2", "result": 0, "unit": "%"},
      {"measurement": "% CONTROL PS", "setting": "[7]; 3 WAT, 4 GAI/HA, evaluation 3", "result": 0, "unit": "%"},
      {"measurement": "% CONTROL PS", "setting": "[7]; 3 WAT, 6 GAI/HA, evaluation 1", "result": 0, "unit": "%"},
      {"measurement": "% CONTROL PS", "setting": "[7]; 3 WAT, 6 GAI/HA, evaluation 2", "result": 0, "unit": "%"},
      {"measurement": "% CONTROL PS", "setting": "[7]; 3 WAT, 6 GAI/HA, evaluation 3", "result": 0, "unit": "%"},
      {"measurement": "% CONTROL PS", "setting": "[7]; 3 WAT, 8 GAI/HA, evaluation 1", "result": 0, "unit": "%"},
      {"measurement": "% CONTROL PS", "setting": "[7]; 3 WAT, 8 GAI/HA, evaluation 2", "result": 0, "unit": "%"},
      {"measurement": "% CONTROL PS", "setting": "[7]; 3 WAT, 8 GAI/HA, evaluation 3", "result": 0, "unit": "%"},
      {"measurement": "% CONTROL PS", "setting": "[7]; 4 WAT, 2 GAI/HA, evaluation 1", "result": 0, "unit": "%"},
      {"measurement": "% CONTROL PS", "setting": "[7]; 4 WAT, 2 GAI/HA, evaluation 2", "result": 0, "unit": "%"},
      {"measurement": "% CONTROL PS", "setting": "[7]; 4 WAT, 2 GAI/HA, evaluation 3", "result": 0, "unit": "%"},
      {"measurement": "% CONTROL PS", "setting": "[7]; 4 WAT, 3 GAI/HA, evaluation 1", "result": 0, "unit": "%"},
      {"measurement": "% CONTROL PS", "setting": "[7]; 4 WAT, 3 GAI/HA, evaluation 2", "result": 0, "unit": "%"}
    ]}
  ]
}
